# Assays:
# [1] = human, in vivo, po, 500 mg
# [2] = Oral 500 mg; cited from earlier work
# clinical = conditions: human, in vivo, po, 500 mg
smiles,measurement,setting,value
CC[C@H]1OC(=O)[C@H](C)[C@@H](O[C@H]2C[C@@](C)(OC)[C@@H](O)[C@H](C)O2)[C@H](C)[C@@H](O[C@@H]2O[C@H](C)C[C@H](N(C)C)[C@H]2O)[C@](C)(O)C[C@@H](C)CN(C)[C@H](C)[C@@H](O)[C@]1(C)O [Azithromycin],"CL, Selected Parameter Value",[1],280.35 mL/min
same,"Vd beta, Selected Parameter Value",[1],5475.92 L
same,"Vss, Selected Parameter Value",[1],4218.4 L
same,"AUC, Maximum",[2],6380 ng·h/mL
same,"AUC, Mean Value",[2],4860 ng·h/mL
same,"AUC, Minimum",[2],3500 ng·h/mL
same,"CL, Mean Value",[2],664.84 mL/min
same,"K10, Maximum",[2],0.12 h⁻¹
same,"K10, Mean Value",[2],0.08 h⁻¹
same,"K10, Minimum",[2],0.05 h⁻¹
same,"K12, Maximum",[2],0.18 h⁻¹
same,"K12, Mean Value",[2],0.12 h⁻¹
same,"K12, Minimum",[2],0.07 h⁻¹
same,"K21, Maximum",[2],0.06 h⁻¹
same,"K21, Mean Value",[2],0.04 h⁻¹
same,"K21, Minimum",[2],0.03 h⁻¹
same,"Ke, Maximum",[2],0.02 h⁻¹
same,"Ke, Mean Value",[2],0.02 h⁻¹
same,"Ke, Minimum",[2],0.02 h⁻¹
same,"T1/2 beta, Mean Value",[2],55.46 h
same,"V1, Maximum",[2],1025.35 L
same,"V1, Mean Value",[2],586.83 L
same,"V1, Minimum",[2],341.94 L
same,"V2, Maximum",[2],3193.05 L
same,"V2, Mean Value",[2],1779.12 L
same,"V2, Minimum",[2],798.71 L
same,"Vd beta, Mean Value",[2],3219.51 L
same,"Vss, Maximum",[2],4218.4 L
same,"Vss, Mean Value",[2],2347.95 L
same,"Vss, Minimum",[2],1018.78 L
same,AUC,clinical,6380 ng·h/mL
same,half-life,clinical,76.2 h

# Reference: patent publication US20250062039A1, “ESTIMATION OF PHARMACOKINETIC (PK) PARAMETERS OF DRUG CANDIDATES USING UNIVERSAL PK PARAMETERS BOUNDS” (Tata Consultancy Services Limited, priority 2023, published 2025)
